According to patent US6933309B2, “Halogenobenzyl aminopropionic acid derivatives” (Toaeiyo Ltd., priority 2002, dated 2005):
Read-outs that look alike come from different tables or passages of the source.

Key:
[1] = system: male KKA^y mice (obesity/noninsulin-dependent diabetes mellitus model); experiment: Blood glucose lowering effect and blood lipid (blood TG and blood FFA) lowering effect in mice; type: in vivo; conditions: 1 mg/kg/day oral, once a day over seven days, plasma on the day following final administration, vs control group; for inhibition in vivo at 1 mg/kg/day: Mus musculus, po, 168 h
Method: Blood glucose Lowering Effect and Blood Lipid (Blood TG and Blood FFA) Lowering Effect in Mice
Each of the test compounds was suspended in a 0.5-%(w/v) sodium CMC solution, and the suspension was forcedly administered via oral route once a day over seven days to male KKA^y mice (obesity/noninsulin-dependent diabetes mellitus model, 6 to 7 weeks old, 3 to 5 animals per group) (1 mg/kg/day). During this 7-day period, feed and water were taken ad libitum. On the day following the final administration, blood was drawn from the tail vein without anesthesia and centrifuged, to thereby prepare plasma samples. Plasma glucose level, plasma TG level, and plasma FFA level of the samples were determined through the enzymatic method by use of an L-type Wako Glu2 (Wako Pure Chemical Industries), an L-type Wako TG-H (Wako Pure Chemical Industries), and an NEFA-HA Test Wako (Wako Pure Chemical Industries), respectively, by means of a full-automated clinical chemistry analyzer (CL-8000, Shimadzu Corporation). Percent reduction was determined from the obtained values by use of the following equations.

KKA^y mice = experiment: Plasma adiponectin level in KKA^y mice after two weeks of oral administration; type: in vivo; conditions: over two weeks, 0.1, 0.3, or 1 mg/kg/day
Method: Separately, the present compound (1) or a salt thereof was orally administered to KKA^y mice over two weeks (0.1, 0.3, or 1 mg/kg/day), and plasma adiponectin level of each mouse was determined.

[2] = read-out: Percent reduction of blood FFA level
[3] = read-out: Percent reduction of blood TG level
[4] = read-out: Percent reduction of blood glucose level

SMILES | melting point [°C] | inhibition in vivo at 1 mg/kg/day [1, 2] [%] | inhibition in vivo at 1 mg/kg/day [1, 3] [%] | inhibition in vivo at 1 mg/kg/day [1, 4] [%] | other results
Cc1oc(-c2ccc(C(F)(F)F)cc2)nc1CCOc1ccc(C[C@H](NCc2ccc(F)cc2)C(=O)O)cc1 [Compound 21, (S)-3-[4-[2-[5-Methyl-2-(4-trifluoromethylphenyl)-1,3-oxazol-4-yl]ethoxy]phenyl]-2-(4-fluorobenzylamino)propionic Acid] | 202 to 204 | – | – | – | –
Cc1oc(-c2ccccc2)nc1CCOc1ccc(C[C@H](NCc2ccc(F)cc2)C(=O)[O-])cc1.[Na+] [Compound 35, Sodium (S)-3-[4-[2-(5-methyl-2-phenyl-1,3-oxazol-4-yl)ethoxy]phenyl]-2-(4-fluorobenzylamino)propionate] | 179 to 181 | 33 | 47 | – | Percent reduction of blood glucose level [1]: 36%
Cc1oc(-c2ccc(F)cc2)nc1CCOc1ccc(C[C@H](NCc2ccc(F)cc2)C(=O)O)cc1 [Compound 19, (S)-3-[4-[2-[2-(4-Fluorophenyl)-5-methyl-1,3-oxazol-4-yl]ethoxy]phenyl]-2-(4-fluorobenzylamino)propionic Acid] | 191 to 193 | – | – | – | –
Cc1oc(-c2ccccc2)nc1CCOc1ccc(C[C@H](NCc2ccc(F)cc2)C(=O)O)cc1.Cl | 198 to 200 | – | – | – | –
CCOC(=O)[C@H](Cc1ccc(OCCc2nc(-c3ccccc3)oc2C)cc1)NCc1ccc(F)cc1.CS(=O)(=O)O [Compound 38, Ethyl(S)-3-[4-[2-(5-methyl-2-phenyl-1,3-oxazol-4-yl)ethoxy]phenyl]-2-(4-fluorobenzylamino)propionate methanesulfonate] | 144 | 16 | 33 | 25 | –
Cc1oc(-c2ccccc2)nc1CCOc1ccc(C[C@H](NCc2cccc(F)c2F)C(=O)O)cc1 [Compound 27, (S)-3-[4-[2-(5-Methyl-2-phenyl-1,3-oxazol-4-yl)ethoxy]phenyl]-2-(2,3-difluorobenzylamino)propionic Acid] | 173 to 175 | 16 | 48 | 40 | –
Cc1oc(-c2ccccc2)nc1CCOc1ccc(C[C@H](NCc2c(F)cccc2F)C(=O)O)cc1 [Compound 28, (S)-3-[4-[2-(5-Methyl-2-phenyl-1,3-oxazol-4-yl)ethoxy]phenyl]-2-(2,6-difluorobenzylamino)propionic Acid] | 165 to 167 | 54 | 65 | 50 | –
Cc1oc(-c2ccccc2)nc1CCOc1ccc(C[C@H](NCc2ccccc2Cl)C(=O)O)cc1 [Compound 32, (S)-3-[4-[2-(5-Methyl-2-phenyl-1,3-oxazol-4-yl)ethoxy]phenyl]-2-(2-chlorobenzylamino)propionic Acid] | 143 to 145 | 13 | 33 | 39 | –
Cc1oc(-c2ccccc2)nc1CCOc1ccc(C[C@H](NCc2c(F)cc(F)cc2F)C(=O)O)cc1 [Compound 29, (S)-3-[4-[2-(5-Methyl-2-phenyl-1,3-oxazol-4-yl)ethoxy]phenyl]-2-(2,4,6-trifluorobenzylamino)propionic Acid] | 168 to 170 | 58 | 74 | 43 | –
Cc1oc(-c2ccccc2)nc1CCOc1ccc(C[C@H](NCc2ccc(Br)cc2)C(=O)O)cc1 [Compound 33, (S)-3-[4-[2-(5-Methyl-2-phenyl-1,3-oxazol-4-yl)ethoxy]phenyl]-2-(4-bromobenzylamino)propionic Acid] | 196 to 199 | – | – | – | –
Cc1oc(-c2ccccc2)nc1CCOc1ccc(C[C@H](NCc2ccc(Cl)cc2)C(=O)O)cc1 [Compound 31, (S)-3-[4-[2-(5-Methyl-2-phenyl-1,3-oxazol-4-yl)ethoxy]phenyl]-2-(4-chlorobenzylamino)propionic Acid] | 197 to 199 | – | – | – | –
Cc1oc(-c2ccccc2)nc1CCOc1ccc(C[C@@H](C(=O)O)N(C)Cc2ccc(F)cc2)cc1 [Compound 34, (S)-3-[4-[2-(5-Methyl-2-phenyl-1,3-oxazol-4-yl)ethoxy]phenyl]-2-[N-(4-fluorobenzyl)-N-methylamino]propionic Acid] | 142 to 145 | – | – | – | –
Cc1sc(N2CCOCC2)nc1CCOc1ccc(C[C@H](NCc2ccc(F)cc2)C(=O)O)cc1 [Compound 23, (S)-3-[4-[2-[5-Methyl-2-(morpholin-4-yl)-1,3-thiazol-4-yl]ethoxy]phenyl]-2-(4-fluorobenzylamino)propionic Acid] | 192 to 194 | – | – | – | –
Cc1oc(-c2ccccc2)nc1CCOc1ccc(C[C@H](NCc2ccccc2)C(=O)O)cc1 [Comparative Compound 1, (S)-3-[4-[2-(5-Methyl-2-phenyl-1,3-oxazol-4-yl)ethoxy]phenyl]-2-(benzylamino)propionic Acid] | 206 to 209 | -2 | 17 | 12 | –
Cc1sc(-c2ccccc2)nc1CCOc1ccc(C[C@H](NCc2ccc(F)cc2)C(=O)O)cc1 [Compound 22, (S)-3-[4-[2-(5-Methyl-2-phenyl-1,3-thiazol-4-yl)ethoxy]phenyl]-2-(4-fluorobenzylamino)propionic Acid] | 192 to 195 | 36 | 53 | 33 | –
Cc1oc(-c2ccccc2)nc1CCOc1ccc(C[C@H](NCc2ccc(F)cc2)C(=O)O)cc1 [Compound 18, (S)-3-[4-[2-(5-Methyl-2-phenyl-1,3-oxazol-4-yl)ethoxy]phenyl]-2-(4-fluorobenzylamino)propionic Acid] | 184.5 to 186.5 | – | – | – | Percent reduction of blood FFA level [1]: 27%; Percent reduction of blood TG level [1]: 40%; Percent reduction of blood glucose level [1]: 15%; effect of increasing plasma adiponectin level (KKA^y mice): particularly excellent effect of increasing plasma adiponectin level
Cc1oc(-c2ccccc2)nc1CCOc1ccc(C[C@H](NCc2ccc(F)cc2F)C(=O)O)cc1 [Compound 25, (S)-3-[4-[2-(5-Methyl-2-phenyl-1,3-oxazol-4-yl)ethoxy]phenyl]-2-(2,4-difluorobenzylamino)propionic Acid] | 190 to 192 | – | – | – | –
Cc1ccc(-c2nc(CCOc3ccc(C[C@H](NCc4ccc(F)cc4)C(=O)O)cc3)c(C)o2)cc1 [Compound 20, (S)-3-[4-[2-[5-Methyl-2-(4-methylphenyl)-1,3-oxazol-4-yl]ethoxy]phenyl]-2-(4-fluorobenzylamino)propionic Acid] | 196 to 198 | 25 | 36 | 21 | –
Cc1oc(-c2ccccc2)nc1CCOc1ccc(C[C@H](NCc2ccc(F)c(F)c2)C(=O)O)cc1 [Compound 26, (S)-3-[4-[2-(5-Methyl-2-phenyl-1,3-oxazol-4-yl)ethoxy]phenyl]-2-(3,4-difluorobenzylamino)propionic Acid] | 202 to 204 | – | – | – | –
Cc1oc(-c2ccccc2)nc1CCOc1ccc(C[C@H](NCc2ccccc2F)C(=O)O)cc1 [Compound 24, (S)-3-[4-[2-(5-Methyl-2-phenyl-1,3-oxazol-4-yl)ethoxy]phenyl]-2-(2-fluorobenzylamino)propionic Acid] | 191 to 193 | – | – | – | –
